Calls of active or inactive are those of the source. The rule behind the calls is not given here.
What was measured:
Acetylcholinesterase [1] = biological target: Acetylcholinesterase (Electrophorus electricus, UniProt O42275); assay: Inhibition of electric eel AChE using acetylthiocholine iodide as substrate preincubated for 5 mins followed by DTNB addition for 5 mins and subsequent addition of substrate measured after 3 mins by Ellman's method
Cholinesterase [2] = biological target: Cholinesterase (Equus caballus, UniProt P81908)
Description: Inhibition of equine serum BCHE using butyrylthiocholine iodide as substrate preincubated for 5 mins followed by DTNB addition for 5 mins and subsequent addition of substrate measured after 3 mins by Ellman's method

PC-12 [3] = assay: Protection against CoCl2-induced damage in rat PC12 cells assessed as cell viability at 10 uM preincubated for 36 hrs followed by CoCl2 addition measured after 12 hrs by MTT assay (reference value: 51.2%); assay type: functional; details: read-out: Activity
in vitro [4] = details: human, HepG2 cells
Description: Cytotoxicity against human HepG2 cells assessed as cell viability at 1.25 uM after 24 hrs by MTT assay relative to control

[5] = Cytotoxicity against NGF-differentiated rat PC12 cells assessed as cell viability at 10 uM after 48 hrs by MTT assay relative to control; assay type: cell-based, PC-12; details: read-out: Activity
[6] = biological target: Amyloid-beta precursor protein (Homo sapiens) (UniProt P05067); assay: Inhibition of self-induced amyloid beta (1 to 42) (unknown origin) aggregation measured after 24 hrs by ThT fluorescence assay
[7] = biological target: Amyloid-beta precursor protein (Homo sapiens) (UniProt P05067); assay: Inhibition of self-induced amyloid beta (1 to 42) (unknown origin) aggregation at 100 uM measured after 24 hrs by ThT fluorescence assay relative to control
[8] = biological target: Acetylcholinesterase (Electrophorus electricus) (UniProt O42275); assay: Mixed-type inhibition of electric eel AChE at 2.5 to 10 nM using varying levels of acetylthiocholine iodide as substrate by Lineweaver-Burk plot analysis
in vitro [9] = details: human, HepG2 cells; remark: listed apart in the source
Description: Cytotoxicity against human HepG2 cells assessed as cell viability at 10 uM after 24 hrs by MTT assay relative to control

[10] = biological target: Amyloid-beta precursor protein (Homo sapiens) (UniProt P05067); assay: Inhibition of self-induced amyloid beta (1 to 42) (unknown origin) aggregation at 20 uM measured after 24 hrs by ThT fluorescence assay relative to control
PC-12 [11] = assay: Protection against CoCl2-induced damage in rat PC12 cells assessed as cell viability at 2.5 uM preincubated for 36 hrs followed by CoCl2 addition measured after 12 hrs by MTT assay (reference value: 51.2%); assay type: functional; details: read-out: Activity
Acetylcholinesterase [12] = biological target: T1, Acetylcholinesterase (Homo sapiens, UniProt P22303); assay: Inhibition of human erythrocyte AChE using acetylthiocholine iodide as substrate preincubated for 5 mins followed by DTNB addition for 5 mins and subsequent addition of substrate measured after 3 mins by Ellman's method
Cholinesterase [13] = biological target: Cholinesterase (Homo sapiens, UniProt P06276); assay: Inhibition of human serum BCHE using butyrylthiocholine iodide as substrate preincubated for 5 mins followed by DTNB addition for 5 mins and subsequent addition of substrate measured after 3 mins by Ellman's method
in vitro [14] = details: human, HepG2 cells; remark: listed apart in the source
Description: Cytotoxicity against human HepG2 cells assessed as cell viability at 2.5 uM after 24 hrs by MTT assay relative to control

Acetylcholinesterase [15] = biological target: T1, Acetylcholinesterase; assay: Potency index, ratio of tacrine IC50 to compound IC50 for inhibition of human erythrocyte AChE
in vitro [16] = details: human, HepG2 cells; remark: listed apart in the source
Description: Cytotoxicity against human HepG2 cells assessed as cell viability at 5 uM after 24 hrs by MTT assay relative to control

PC-12 [17] = assay: Protection against CoCl2-induced damage in rat PC12 cells assessed as cell viability at 5 uM preincubated for 36 hrs followed by CoCl2 addition measured after 12 hrs by MTT assay (reference value: 51.2%); assay type: functional; details: read-out: Activity
PC-12 [18] = assay: Protection against CoCl2-induced damage in rat PC12 cells assessed as increase in cell viability preincubated for 36 hrs followed by CoCl2 addition measured after 12 hrs by MTT assay; assay type: functional, cell-based
Acetylcholinesterase [19] = biological target: T1, Acetylcholinesterase; assay: Mixed-type inhibition of human erythrocyte AChE at 2.5 to 10 nM using varying levels of acetylthiocholine iodide as substrate by Lineweaver-Burk plot analysis
[20] = biological target: Amyloid-beta precursor protein (Homo sapiens) (UniProt P05067); assay: Inhibition of self-induced amyloid beta (1 to 42) (unknown origin) aggregation up to 100 uM measured after 24 hrs by ThT fluorescence assay

Acetylcholinesterase (Electrophorus electricus, UniProt O42275), sequence (O42275 whole entry): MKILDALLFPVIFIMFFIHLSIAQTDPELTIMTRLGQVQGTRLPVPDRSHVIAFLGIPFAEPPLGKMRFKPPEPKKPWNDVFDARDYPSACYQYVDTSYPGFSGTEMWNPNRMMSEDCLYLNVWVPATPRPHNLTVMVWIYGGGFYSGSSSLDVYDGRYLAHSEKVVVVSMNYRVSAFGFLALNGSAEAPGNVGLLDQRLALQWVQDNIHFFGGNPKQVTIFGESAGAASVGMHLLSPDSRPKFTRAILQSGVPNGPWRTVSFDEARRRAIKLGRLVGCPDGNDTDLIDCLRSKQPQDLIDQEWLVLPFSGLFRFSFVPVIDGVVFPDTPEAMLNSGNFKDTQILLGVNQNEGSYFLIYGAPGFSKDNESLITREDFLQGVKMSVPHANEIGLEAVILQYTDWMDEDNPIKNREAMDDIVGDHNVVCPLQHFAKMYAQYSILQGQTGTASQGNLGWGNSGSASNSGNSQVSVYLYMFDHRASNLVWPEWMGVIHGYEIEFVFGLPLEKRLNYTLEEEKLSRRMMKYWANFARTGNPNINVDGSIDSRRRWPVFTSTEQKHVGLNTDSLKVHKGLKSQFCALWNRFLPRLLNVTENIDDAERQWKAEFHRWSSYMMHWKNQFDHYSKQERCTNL
Amyloid-beta precursor protein (Homo sapiens), sequence (P05067 whole entry): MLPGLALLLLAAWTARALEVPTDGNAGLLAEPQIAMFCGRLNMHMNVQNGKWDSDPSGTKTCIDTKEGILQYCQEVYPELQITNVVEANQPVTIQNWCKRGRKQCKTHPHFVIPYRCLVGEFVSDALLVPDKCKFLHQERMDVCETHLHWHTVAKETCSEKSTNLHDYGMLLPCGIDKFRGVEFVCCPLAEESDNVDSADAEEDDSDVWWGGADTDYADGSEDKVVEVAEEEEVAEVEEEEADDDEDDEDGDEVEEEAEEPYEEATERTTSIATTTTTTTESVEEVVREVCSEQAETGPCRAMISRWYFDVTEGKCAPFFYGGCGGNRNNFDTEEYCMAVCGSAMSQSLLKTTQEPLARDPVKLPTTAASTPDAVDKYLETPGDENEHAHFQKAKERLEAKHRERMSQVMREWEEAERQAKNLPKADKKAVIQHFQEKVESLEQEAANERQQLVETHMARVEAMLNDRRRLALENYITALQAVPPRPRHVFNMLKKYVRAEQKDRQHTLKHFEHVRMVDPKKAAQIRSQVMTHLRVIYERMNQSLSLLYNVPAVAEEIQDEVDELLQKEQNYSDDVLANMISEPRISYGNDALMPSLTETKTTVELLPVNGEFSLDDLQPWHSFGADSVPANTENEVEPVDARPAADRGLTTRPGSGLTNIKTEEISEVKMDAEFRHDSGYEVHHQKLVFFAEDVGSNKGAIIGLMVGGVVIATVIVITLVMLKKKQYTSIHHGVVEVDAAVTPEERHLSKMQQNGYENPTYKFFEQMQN
T1 sequence (P22303 whole entry): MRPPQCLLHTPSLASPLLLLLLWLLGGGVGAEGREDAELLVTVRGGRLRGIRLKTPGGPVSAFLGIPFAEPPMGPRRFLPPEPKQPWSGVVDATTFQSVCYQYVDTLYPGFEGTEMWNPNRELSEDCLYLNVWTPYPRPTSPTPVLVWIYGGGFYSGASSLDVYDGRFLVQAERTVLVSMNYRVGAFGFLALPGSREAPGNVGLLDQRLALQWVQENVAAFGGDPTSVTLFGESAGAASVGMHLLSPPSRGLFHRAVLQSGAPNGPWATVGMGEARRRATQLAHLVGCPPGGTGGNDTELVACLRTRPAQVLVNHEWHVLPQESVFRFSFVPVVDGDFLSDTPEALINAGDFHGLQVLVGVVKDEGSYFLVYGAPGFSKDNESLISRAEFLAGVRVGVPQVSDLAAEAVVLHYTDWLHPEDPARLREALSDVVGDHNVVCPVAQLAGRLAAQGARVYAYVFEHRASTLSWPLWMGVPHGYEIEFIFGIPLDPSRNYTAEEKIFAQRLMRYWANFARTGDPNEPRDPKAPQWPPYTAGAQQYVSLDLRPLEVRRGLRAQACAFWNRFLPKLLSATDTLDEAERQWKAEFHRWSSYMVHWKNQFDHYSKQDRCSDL
Cholinesterase (Equus caballus, UniProt P81908), sequence (P81908 whole entry): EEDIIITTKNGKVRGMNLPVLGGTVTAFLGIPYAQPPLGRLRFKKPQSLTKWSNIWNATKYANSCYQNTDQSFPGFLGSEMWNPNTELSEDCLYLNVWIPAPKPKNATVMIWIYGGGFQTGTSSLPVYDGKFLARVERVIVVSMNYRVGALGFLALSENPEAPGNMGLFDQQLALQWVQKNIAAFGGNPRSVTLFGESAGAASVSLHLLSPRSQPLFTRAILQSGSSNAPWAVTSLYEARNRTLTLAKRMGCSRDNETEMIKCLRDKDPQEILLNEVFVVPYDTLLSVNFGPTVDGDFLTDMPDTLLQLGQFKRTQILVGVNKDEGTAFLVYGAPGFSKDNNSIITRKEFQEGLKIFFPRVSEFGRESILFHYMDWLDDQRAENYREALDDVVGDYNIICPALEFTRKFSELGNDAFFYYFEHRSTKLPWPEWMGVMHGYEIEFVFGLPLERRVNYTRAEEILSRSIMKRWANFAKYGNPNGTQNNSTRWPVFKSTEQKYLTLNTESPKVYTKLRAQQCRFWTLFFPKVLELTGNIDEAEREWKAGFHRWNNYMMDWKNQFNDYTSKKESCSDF
Cholinesterase (Homo sapiens, UniProt P06276), sequence (P06276 whole entry): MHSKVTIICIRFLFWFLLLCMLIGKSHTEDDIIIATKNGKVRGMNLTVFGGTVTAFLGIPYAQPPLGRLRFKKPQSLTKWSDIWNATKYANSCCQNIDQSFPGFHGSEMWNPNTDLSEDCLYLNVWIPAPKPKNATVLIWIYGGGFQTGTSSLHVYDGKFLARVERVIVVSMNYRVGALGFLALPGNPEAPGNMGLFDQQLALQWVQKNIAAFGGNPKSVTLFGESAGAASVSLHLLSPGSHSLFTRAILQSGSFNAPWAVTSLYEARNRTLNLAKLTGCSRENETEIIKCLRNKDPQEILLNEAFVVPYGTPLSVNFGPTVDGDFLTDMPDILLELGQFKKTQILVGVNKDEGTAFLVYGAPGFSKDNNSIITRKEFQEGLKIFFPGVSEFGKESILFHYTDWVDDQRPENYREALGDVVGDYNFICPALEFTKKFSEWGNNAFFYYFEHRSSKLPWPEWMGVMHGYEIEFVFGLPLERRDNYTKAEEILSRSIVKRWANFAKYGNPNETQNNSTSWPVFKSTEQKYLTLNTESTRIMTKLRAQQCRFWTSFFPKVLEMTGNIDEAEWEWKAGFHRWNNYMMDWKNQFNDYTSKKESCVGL
Acetylcholinesterase (Electrophorus electricus), sequence (O42275 24-633 limits assumed): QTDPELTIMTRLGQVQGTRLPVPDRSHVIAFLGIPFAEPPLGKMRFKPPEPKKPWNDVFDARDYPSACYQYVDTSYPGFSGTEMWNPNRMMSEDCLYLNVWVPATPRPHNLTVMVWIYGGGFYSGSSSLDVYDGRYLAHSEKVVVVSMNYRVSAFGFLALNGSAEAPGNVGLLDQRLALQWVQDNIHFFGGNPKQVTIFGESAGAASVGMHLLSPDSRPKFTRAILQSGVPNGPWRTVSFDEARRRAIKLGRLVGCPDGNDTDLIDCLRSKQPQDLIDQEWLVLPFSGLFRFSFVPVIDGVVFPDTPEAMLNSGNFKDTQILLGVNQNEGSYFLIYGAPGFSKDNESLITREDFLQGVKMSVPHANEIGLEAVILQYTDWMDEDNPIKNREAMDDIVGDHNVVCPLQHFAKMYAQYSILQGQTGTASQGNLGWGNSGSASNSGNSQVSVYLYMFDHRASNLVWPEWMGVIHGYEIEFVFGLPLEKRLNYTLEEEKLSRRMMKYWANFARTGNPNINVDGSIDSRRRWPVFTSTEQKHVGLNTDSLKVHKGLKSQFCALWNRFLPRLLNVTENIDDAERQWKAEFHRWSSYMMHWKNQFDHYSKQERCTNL

COc1cc(/C=C/C(=O)NCCCCCCCCNc2c3c(nc4ccccc24)CCCC3)cc(OC)c1OCc1nc(C)c(C)nc1C
IC50 (Acetylcholinesterase [1]): 145 nM | IC50 (Cholinesterase [2]): 16.6 nM

Cc1nc(C)c(COc2ccc(/C=C/C(=O)NCCCCCCNc3c4c(nc5ccccc35)CCCC4)cc2)nc1C
IC50 (Acetylcholinesterase [1]): 304 nM | IC50 (Cholinesterase [2]): 147 nM

Cc1c(C)c2c(c(C)c1O)CCC(C)(C(=O)O)O2 (centres undefined) [TROLOX]
viability at 10 µM (PC-12 [3]): 101%

COc1cc(/C=C/C(=O)NCCCNc2c3c(nc4ccccc24)CCCC3)cc(OC)c1OCc1nc(C)c(C)nc1C
IC50 (Acetylcholinesterase [1]): 116 nM | IC50 (Cholinesterase [2]): > 1000 nM

COc1cc(/C=C/C(=O)NCCCCNc2c3c(nc4ccccc24)CCCC3)cc(OC)c1OCc1nc(C)c(C)nc1C
IC50 (Acetylcholinesterase [1]): 179 nM | IC50 (Cholinesterase [2]): > 1000 nM

COc1cc(/C=C/C(=O)NCCNc2c3c(nc4ccccc24)CCCC3)cc(OC)c1O
IC50 (Acetylcholinesterase [1]): 101 nM | IC50 (Cholinesterase [2]): > 1000 nM

COc1cc(/C=C/C(=O)NCCCCCCNc2c3c(nc4ccccc24)CCCC3)cc(OC)c1O
viability at 24 h, 1.25 µM (in vitro [4]): 98.4% | viability at 48 h, 10 µM [5]: 131% | inhibition [6]: Dose-dependent effect | inhibition [7]: 48% | viability at 10 µM (PC-12 [3]): 107% | inhibition [8]: Active | viability at 24 h, 10 µM (in vitro [9]): 81.8% | inhibition [10]: 47% | viability at 2.5 µM (PC-12 [11]): 92.4% | IC50 (Acetylcholinesterase [12]): 65.2 nM | IC50 (Cholinesterase [13]): 48.8 nM | viability at 24 h, 2.5 µM (in vitro [14]): 96.3% | IC50 (Acetylcholinesterase [1]): 3.9 nM | Ratio IC50 (Acetylcholinesterase [15]): 2 | viability at 24 h, 5 µM (in vitro [16]): 94.9% | IC50 (Cholinesterase [2]): 24.3 nM | viability at 5 µM (PC-12 [17]): 99.5% | Activity (PC-12 [18]): Dose-dependent effect | inhibition (Acetylcholinesterase [19]): Active

COc1cc(/C=C/C(=O)NCCNc2c3c(nc4ccccc24)CCCC3)cc(OC)c1OCc1nc(C)c(C)nc1C
IC50 (Acetylcholinesterase [1]): 65.3 nM | IC50 (Cholinesterase [2]): 613 nM

Cc1nc(C)c(COc2ccc(/C=C/C(=O)NCCCCNc3c4c(nc5ccccc35)CCCC4)cc2)nc1C
IC50 (Acetylcholinesterase [1]): 334 nM | IC50 (Cholinesterase [2]): 2.3 nM

COc1cc(/C=C/C(=O)NCCCNc2c3c(nc4ccccc24)CCCC3)ccc1OCc1nc(C)c(C)nc1C
IC50 (Acetylcholinesterase [1]): 12.2 nM | IC50 (Cholinesterase [2]): 22.6 nM

COc1cc(/C=C/C(=O)NCCCCCCNc2c3c(nc4ccccc24)CCCC3)ccc1OCc1nc(C)c(C)nc1C
IC50 (Acetylcholinesterase [1]): 14.7 nM | IC50 (Cholinesterase [2]): 28.3 nM

COc1cc(/C=C/C(=O)NCCCCNc2c3c(nc4ccccc24)CCCC3)ccc1OCc1nc(C)c(C)nc1C
IC50 (Acetylcholinesterase [1]): 188 nM | IC50 (Cholinesterase [2]): 32.4 nM

COc1cc(/C=C/C(=O)NCCNc2c3c(nc4ccccc24)CCCC3)ccc1OCc1nc(C)c(C)nc1C
IC50 (Acetylcholinesterase [1]): 33.1 nM | IC50 (Cholinesterase [2]): 502 nM

COc1cc(/C=C/C(=O)NCCCCCCCCNc2c3c(nc4ccccc24)CCCC3)cc(OC)c1O
IC50 (Acetylcholinesterase [1]): 32.5 nM | IC50 (Cholinesterase [2]): 9.3 nM

O=C(/C=C/c1ccc(O)cc1)NCCNc1c2c(nc3ccccc13)CCCC2
IC50 (Acetylcholinesterase [1]): 110 nM | IC50 (Cholinesterase [2]): 302 nM

COc1cc(/C=C/C(=O)NCCCCNc2c3c(nc4ccccc24)CCCC3)cc(OC)c1O
IC50 (Acetylcholinesterase [1]): 64.4 nM | IC50 (Cholinesterase [2]): 241 nM

COc1cc(/C=C/C(=O)NCCCNc2c3c(nc4ccccc24)CCCC3)cc(OC)c1O
IC50 (Acetylcholinesterase [1]): 25.8 nM | IC50 (Cholinesterase [2]): 330 nM

Cc1nc(C)c(COc2ccc(/C=C/C(=O)NCCCCCCCCNc3c4c(nc5ccccc35)CCCC4)cc2OCc2nc(C)c(C)nc2C)nc1C
IC50 (Acetylcholinesterase [1]): > 1000 nM | IC50 (Cholinesterase [2]): 61.8 nM

Cc1nc(C)c(COc2ccc(/C=C/C(=O)NCCCCNc3c4c(nc5ccccc35)CCCC4)cc2OCc2nc(C)c(C)nc2C)nc1C
IC50 (Acetylcholinesterase [1]): 139 nM | IC50 (Cholinesterase [2]): 111 nM

Cc1nc(C)c(COc2ccc(CC(O)C(=O)NCCCCNc3c4c(nc5ccccc35)CCCC4)cc2OCc2nc(C)c(C)nc2C)nc1C (centres undefined)
IC50 (Acetylcholinesterase [1]): > 1000 nM | IC50 (Cholinesterase [2]): > 1000 nM

O=C(/C=C/c1ccc(O)cc1)NCCCCCCCCNc1c2c(nc3ccccc13)CCCC2
IC50 (Acetylcholinesterase [1]): 522 nM | IC50 (Cholinesterase [2]): 278 nM

Cc1nc(C)c(COc2ccc(/C=C/C(=O)NCCCNc3c4c(nc5ccccc35)CCCC4)cc2OCc2nc(C)c(C)nc2C)nc1C
IC50 (Acetylcholinesterase [1]): 13.7 nM | IC50 (Cholinesterase [2]): 199 nM

O=C(/C=C/c1ccc(O)cc1)NCCCNc1c2c(nc3ccccc13)CCCC2
IC50 (Acetylcholinesterase [1]): 128 nM | IC50 (Cholinesterase [2]): 43.3 nM

O=C(/C=C/c1ccc(O)cc1)NCCCCCCNc1c2c(nc3ccccc13)CCCC2
IC50 (Acetylcholinesterase [1]): 44.6 nM | IC50 (Cholinesterase [2]): 24.1 nM

Cc1nc(C)c(COc2ccc(CC(O)C(=O)NCCCNc3c4c(nc5ccccc35)CCCC4)cc2OCc2nc(C)c(C)nc2C)nc1C (centres undefined)
IC50 (Acetylcholinesterase [1]): > 1000 nM | IC50 (Cholinesterase [2]): 165 nM

Cc1nc(C)c(COc2ccc(CC(O)C(=O)NCCCCCCCCNc3c4c(nc5ccccc35)CCCC4)cc2OCc2nc(C)c(C)nc2C)nc1C (centres undefined)
IC50 (Acetylcholinesterase [1]): 65.1 nM | IC50 (Cholinesterase [2]): 3.8 nM

Cc1nc(C)c(COc2ccc(/C=C/C(=O)NCCCNc3c4c(nc5ccccc35)CCCC4)cc2)nc1C
IC50 (Acetylcholinesterase [1]): 205 nM | IC50 (Cholinesterase [2]): 5.2 nM

COc1cc(/C=C/C(=O)NCCCCCCCCNc2c3c(nc4ccccc24)CCCC3)ccc1OCc1nc(C)c(C)nc1C
IC50 (Acetylcholinesterase [1]): 304 nM | IC50 (Cholinesterase [2]): 174 nM

Cc1nc(C)c(COc2ccc(CC(O)C(=O)NCCNc3c4c(nc5ccccc35)CCCC4)cc2OCc2nc(C)c(C)nc2C)nc1C (centres undefined)
IC50 (Acetylcholinesterase [1]): > 1000 nM | IC50 (Cholinesterase [2]): 816 nM

Cc1nc(C)c(COc2ccc(/C=C/C(=O)NCCCCCCNc3c4c(nc5ccccc35)CCCC4)cc2OCc2nc(C)c(C)nc2C)nc1C
IC50 (Acetylcholinesterase [1]): 136 nM | IC50 (Cholinesterase [2]): 68.1 nM

COc1cc(/C=C/C(=O)NCCCCCCNc2c3c(nc4ccccc24)CCCC3)cc(OC)c1OCc1nc(C)c(C)nc1C
viability at 10 µM (PC-12 [3]): 11.2% | inhibition [20]: inactive | viability at 2.5 µM (PC-12 [11]): 37.7% | IC50 (Acetylcholinesterase [12]): 108 nM | IC50 (Cholinesterase [13]): 577 nM | IC50 (Acetylcholinesterase [1]): 2.6 nM | IC50 (Cholinesterase [2]): 28.6 nM | viability at 5 µM (PC-12 [17]): 15%

Cc1nc(C)c(COc2ccc(CC(O)C(=O)NCCCCCCNc3c4c(nc5ccccc35)CCCC4)cc2OCc2nc(C)c(C)nc2C)nc1C (centres undefined)
IC50 (Acetylcholinesterase [1]): 270 nM | IC50 (Cholinesterase [2]): 1.3 nM

Cc1nc(C)c(COc2ccc(/C=C/C(=O)NCCNc3c4c(nc5ccccc35)CCCC4)cc2)nc1C
IC50 (Acetylcholinesterase [1]): 44.9 nM | IC50 (Cholinesterase [2]): 589 nM

Cc1nc(C)c(COc2ccc(/C=C/C(=O)NCCNc3c4c(nc5ccccc35)CCCC4)cc2OCc2nc(C)c(C)nc2C)nc1C
IC50 (Acetylcholinesterase [1]): 108 nM | IC50 (Cholinesterase [2]): > 1000 nM

Cc1nc(C)c(COc2ccc(/C=C/C(=O)NCCCCCCCCNc3c4c(nc5ccccc35)CCCC4)cc2)nc1C
IC50 (Acetylcholinesterase [1]): 264 nM | IC50 (Cholinesterase [2]): 228 nM

O=C(/C=C/c1ccc(O)cc1)NCCCCNc1c2c(nc3ccccc13)CCCC2
IC50 (Acetylcholinesterase [1]): 139 nM | IC50 (Cholinesterase [2]): 29.8 nM
